Results reported in US8993574B2, “Pyrrole antifungal agents” (F2G Ltd, priority 2008, dated 2015).

What was measured:
Aspergillus flavus = experiment: MIC, RPMI medium; assay type: cell-based; conditions: Aspergillus flavus, MIC banded into grades, read-out: MIC grade, A. flavus
Outline: (§1)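 RPMI (2% glucose, 0.135 M MOPS, pH 7.0) microdilution; drug 50-0.05 mg/L doubling series; inoculum 1−2×10^4 cfu/mL; 24-48 h, 35° C; OD485; MIC = lowest conc. with >80% inhibition vs drug-free control.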

[1] = tested on: Aspergillus fumigatus AF210; experiment: MIC, RPMI medium; assay type: cell-based; conditions: Aspergillus fumigatus, AF210, MIC banded into grades, read-out: MIC grade, A. fumigatus 210
Outline: as §1

[2] = tested on: Aspergillus fumigatus AF293; experiment: MIC, RPMI medium; assay type: cell-based; conditions: Aspergillus fumigatus, AF293, MIC banded into grades, read-out: MIC grade, A. fumigatus
Outline: as §1

Aspergillus niger = experiment: MIC, RPMI medium; assay type: cell-based; conditions: Aspergillus niger, MIC banded into grades, read-out: MIC grade, A. niger
Outline: as §1

Aspergillus terreus AT49 = experiment: MIC, RPMI medium; assay type: cell-based; conditions: Aspergillus terreus, AT49, MIC banded into grades, read-out: MIC grade, A. terreus 49
Outline: as §1

Aspergillus terreus AT4 = experiment: MIC, RPMI medium; assay type: cell-based; conditions: Aspergillus terreus, AT4, MIC banded into grades, read-out: MIC grade, A. terreus
Outline: as §1

A. fumigatus A1163 [3] = experiment: Temporary (TI) neutropenic murine survival model of disseminated aspergillosis; assay type: in vivo, CD-1 mouse; conditions: for survival at day 18: TI model with prolonged observation; for survival at day 18 / survival benefit / survival: oral; for survival benefit / survival: TI survival model
Protocol: (§2) Methods: Temporary (TI) or persistently (PI) neutropenic CD-1 mouse models of disseminated aspergillus were used. 3 days post immunosuppression with cyclophosphamide (200 mg/kg ip) mice were infected IV with an LD90 challenge of A. fumigatus A1163. Treatment commenced 5 h post infection and animals were treated for 9 days and observed for either 2 days or 7 days following cessation of treatment. […] 2-(1,5-Dimethyl-3-phenyl-1H-pyrrol-2-yl)-N-{4-[4-(4,6-dimethyl-pyridin-2-yl)-piperazin-1-yl]-phenyl}-2-oxo-acetamide was dosed orally as a suspension in HPMC/Tween 80 once or twice daily. Caspofungin dosed IP was used as a comparator.

A. fumigatus A1163 [4] = experiment: Persistently (PI) neutropenic murine survival model of disseminated aspergillosis; assay type: in vivo, CD-1 mouse; conditions: severe PI model, oral, 20 mg/kg BD
Protocol: as §2

Cc1cc(C)nc(N2CCN(c3ccc(NC(=O)C(=O)c4c(-c5ccccc5)cc(C)n4C)cc3)CC2)c1 [Example 1, 2-(1,5-Dimethyl-3-phenyl-1H-pyrrol-2-yl)-N-{4-[4-(4,6-dimethyl-pyridin-2-yl)-piperazin-1-yl]-phenyl}-2-oxo-acetamide]
MIC (Aspergillus flavus): < 1 µg/mL | MIC [1]: < 1 µg/mL | MIC [2]: < 1 µg/mL | MIC (Aspergillus niger): < 1 µg/mL | MIC (Aspergillus terreus AT49): < 1 µg/mL | MIC (Aspergillus terreus AT4): < 1 µg/mL | survival at day 18 (A. fumigatus A1163 [3]; 10 mg/kg BD): 80% | survival at day 18 (A. fumigatus A1163 [3]; 20 mg/kg OD): 70% | survival benefit (A. fumigatus A1163 [3]; 1.25 mg/kg per day): little benefit | survival benefit (A. fumigatus A1163 [3]; 2.5 mg/kg per day): little benefit | survival (A. fumigatus A1163 [3]; 5 mg/kg per day): 80% | survival (A. fumigatus A1163 [3]; 10 mg/kg/day): 90% | survival (A. fumigatus A1163 [3]; 20 mg/kg/day): 100% | survival (A. fumigatus A1163 [3]; 30 mg/kg/day): 100% | survival (A. fumigatus A1163 [3]; 40 mg/kg/day): 100% | efficacy compared with caspofungin (CAS) dosed IP (A. fumigatus A1163 [3]; in these models (TI and PI)): at least as effective as CAS | survival at day 12 (A. fumigatus A1163 [4]): 70%
